# Measurements taken from the NIST ThermoML archive (doi:10.1016/j.jct.2018.05.017).
# ± gives the expanded uncertainty stated by the source.
# Experiments:
# [1] = activity coefficient (dimensionless); of the first substance listed, at infinite dilution; xn = mol fraction of the nth substance listed; details: 101.33 kPa, Liquid, Chromatography, x1 = 0
# [2] = 101.33 kPa, Liquid, Vibrating tube method
structure (smiles),measurement,setting,value
CC(C)=O [acetone] + CCCCCCn1cc[n+](C)c1C.F[B-](F)(F)F,activity coefficient,[1]; 313.15 K,0.84 ± 0.09
same,activity coefficient,[1]; 323.15 K,0.87 ± 0.09
same,activity coefficient,[1]; 333.15 K,0.9 ± 0.09
same,activity coefficient,[1]; 343.15 K,0.93 ± 0.09
same,activity coefficient,[1]; 353.15 K,0.96 ± 0.1
"Cc1cccc(C)c1 [1,3-dimethylbenzene] + CCCCCCn1cc[n+](C)c1C.F[B-](F)(F)F",activity coefficient,[1]; 313.15 K,3.37 ± 0.35
same,activity coefficient,[1]; 323.15 K,3.46 ± 0.36
same,activity coefficient,[1]; 333.15 K,3.59 ± 0.38
same,activity coefficient,[1]; 343.15 K,3.67 ± 0.39
same,activity coefficient,[1]; 353.15 K,3.79 ± 0.4
CO [methanol] + CCCCCCn1cc[n+](C)c1C.F[B-](F)(F)F,activity coefficient,[1]; 313.15 K,0.96 ± 0.1
same,activity coefficient,[1]; 323.15 K,0.91 ± 0.09
same,activity coefficient,[1]; 333.15 K,0.86 ± 0.09
same,activity coefficient,[1]; 343.15 K,0.82 ± 0.08
same,activity coefficient,[1]; 353.15 K,0.78 ± 0.08
CC(C)CO [2-methyl-1-propanol] + CCCCCCn1cc[n+](C)c1C.F[B-](F)(F)F,activity coefficient,[1]; 313.15 K,2.28 ± 0.24
same,activity coefficient,[1]; 323.15 K,2.15 ± 0.23
same,activity coefficient,[1]; 333.15 K,2.01 ± 0.21
same,activity coefficient,[1]; 343.15 K,1.9 ± 0.2
same,activity coefficient,[1]; 353.15 K,1.85 ± 0.19
C1CCCCC1 [cyclohexane] + CCCCCCn1cc[n+](C)c1C.F[B-](F)(F)F,activity coefficient,[1]; 313.15 K,19.8 ± 2.1
same,activity coefficient,[1]; 323.15 K,19.6 ± 2.1
same,activity coefficient,[1]; 333.15 K,19.5 ± 2
same,activity coefficient,[1]; 343.15 K,19.1 ± 2
same,activity coefficient,[1]; 353.15 K,18.9 ± 2
ClC(Cl)Cl [trichloromethane] + CCCCCCn1cc[n+](C)c1C.F[B-](F)(F)F,activity coefficient,[1]; 313.15 K,0.68 ± 0.07
same,activity coefficient,[1]; 323.15 K,0.72 ± 0.08
same,activity coefficient,[1]; 333.15 K,0.77 ± 0.08
same,activity coefficient,[1]; 343.15 K,0.82 ± 0.08
same,activity coefficient,[1]; 353.15 K,0.87 ± 0.09
CCO [ethanol] + CCCCCCn1cc[n+](C)c1C.F[B-](F)(F)F,activity coefficient,[1]; 313.15 K,1.4 ± 0.14
same,activity coefficient,[1]; 323.15 K,1.31 ± 0.13
same,activity coefficient,[1]; 333.15 K,1.23 ± 0.13
same,activity coefficient,[1]; 343.15 K,1.16 ± 0.12
same,activity coefficient,[1]; 353.15 K,1.09 ± 0.11
"CCCCCCn1cc[n+](C)c1C.F[B-](F)(F)F [1-hexyl-2,3-dimethylimidazolium tetrafluoroborate]",mass density,[2]; 313.15 K,1129.8 ± 2.4 kg/m3
same,mass density,[2]; 323.15 K,1123.3 ± 2.4 kg/m3
same,mass density,[2]; 333.15 K,1116.8 ± 2.4 kg/m3
same,mass density,[2]; 343.15 K,1110.3 ± 2.4 kg/m3
same,mass density,[2]; 353.15 K,1103.87 ± 2.4 kg/m3
CCCCO [butan-1-ol] + CCCCCCn1cc[n+](C)c1C.F[B-](F)(F)F,activity coefficient,[1]; 313.15 K,2.77 ± 0.29
same,activity coefficient,[1]; 323.15 K,2.67 ± 0.28
same,activity coefficient,[1]; 333.15 K,2.5 ± 0.3
same,activity coefficient,[1]; 343.15 K,2.37 ± 0.25
same,activity coefficient,[1]; 353.15 K,2.27 ± 0.24
"C1COCCO1 [1,4-dioxane] + CCCCCCn1cc[n+](C)c1C.F[B-](F)(F)F",activity coefficient,[1]; 313.15 K,1.08 ± 0.11
same,activity coefficient,[1]; 323.15 K,1.09 ± 0.11
same,activity coefficient,[1]; 333.15 K,1.1 ± 0.11
same,activity coefficient,[1]; 343.15 K,1.12 ± 0.11
same,activity coefficient,[1]; 353.15 K,1.13 ± 0.12
CCCCCCCC [octane] + CCCCCCn1cc[n+](C)c1C.F[B-](F)(F)F,activity coefficient,[1]; 313.15 K,65.1 ± 6.8
same,activity coefficient,[1]; 323.15 K,64.1 ± 6.8
same,activity coefficient,[1]; 333.15 K,62.1 ± 6.5
same,activity coefficient,[1]; 343.15 K,61.2 ± 6.4
same,activity coefficient,[1]; 353.15 K,60.4 ± 6.4
Cc1ccccc1 [toluene] + CCCCCCn1cc[n+](C)c1C.F[B-](F)(F)F,activity coefficient,[1]; 313.15 K,2.21 ± 0.23
same,activity coefficient,[1]; 323.15 K,2.26 ± 0.24
same,activity coefficient,[1]; 333.15 K,2.31 ± 0.24
same,activity coefficient,[1]; 343.15 K,2.35 ± 0.25
same,activity coefficient,[1]; 353.15 K,2.4 ± 0.25
ClCCl [dichloromethane] + CCCCCCn1cc[n+](C)c1C.F[B-](F)(F)F,activity coefficient,[1]; 313.15 K,0.7 ± 0.07
same,activity coefficient,[1]; 323.15 K,0.74 ± 0.08
same,activity coefficient,[1]; 333.15 K,0.8 ± 0.08
same,activity coefficient,[1]; 343.15 K,0.87 ± 0.09
same,activity coefficient,[1]; 353.15 K,0.93 ± 0.09
CC(C)O [propan-2-ol] + CCCCCCn1cc[n+](C)c1C.F[B-](F)(F)F,activity coefficient,[1]; 313.15 K,1.75 ± 0.18
same,activity coefficient,[1]; 323.15 K,1.67 ± 0.17
same,activity coefficient,[1]; 333.15 K,1.58 ± 0.16
same,activity coefficient,[1]; 343.15 K,1.46 ± 0.15
same,activity coefficient,[1]; 353.15 K,1.39 ± 0.14
CCCO [propan-1-ol] + CCCCCCn1cc[n+](C)c1C.F[B-](F)(F)F,activity coefficient,[1]; 313.15 K,1.74 ± 0.18
same,activity coefficient,[1]; 323.15 K,1.65 ± 0.17
same,activity coefficient,[1]; 333.15 K,1.53 ± 0.16
same,activity coefficient,[1]; 343.15 K,1.43 ± 0.15
same,activity coefficient,[1]; 353.15 K,1.33 ± 0.14
CCC(C)O (stereo not given) [butan-2-ol] + CCCCCCn1cc[n+](C)c1C.F[B-](F)(F)F,activity coefficient,[1]; 313.15 K,2.65 ± 0.28
same,activity coefficient,[1]; 323.15 K,2.56 ± 0.27
same,activity coefficient,[1]; 333.15 K,2.48 ± 0.26
same,activity coefficient,[1]; 343.15 K,2.38 ± 0.25
same,activity coefficient,[1]; 353.15 K,2.28 ± 0.24
CCCCCCCCCC [decane] + CCCCCCn1cc[n+](C)c1C.F[B-](F)(F)F,activity coefficient,[1]; 313.15 K,125 ± 13
same,activity coefficient,[1]; 323.15 K,121 ± 13
same,activity coefficient,[1]; 333.15 K,112 ± 12
same,activity coefficient,[1]; 343.15 K,102 ± 11
same,activity coefficient,[1]; 353.15 K,92 ± 9.7
CCCCCCCCC [nonane] + CCCCCCn1cc[n+](C)c1C.F[B-](F)(F)F,activity coefficient,[1]; 313.15 K,89.5 ± 9.4
same,activity coefficient,[1]; 323.15 K,83.5 ± 8.8
same,activity coefficient,[1]; 333.15 K,77.8 ± 8.2
same,activity coefficient,[1]; 343.15 K,72.6 ± 7.7
same,activity coefficient,[1]; 353.15 K,67.4 ± 7.1
ClC(Cl)(Cl)Cl [tetrachloromethane] + CCCCCCn1cc[n+](C)c1C.F[B-](F)(F)F,activity coefficient,[1]; 313.15 K,3.5 ± 0.37
same,activity coefficient,[1]; 323.15 K,3.61 ± 0.38
same,activity coefficient,[1]; 333.15 K,3.7 ± 0.4
same,activity coefficient,[1]; 343.15 K,3.72 ± 0.39
same,activity coefficient,[1]; 353.15 K,3.86 ± 0.41
CC#N [acetonitrile] + CCCCCCn1cc[n+](C)c1C.F[B-](F)(F)F,activity coefficient,[1]; 313.15 K,0.52 ± 0.06
same,activity coefficient,[1]; 323.15 K,0.54 ± 0.06
same,activity coefficient,[1]; 333.15 K,0.56 ± 0.06
same,activity coefficient,[1]; 343.15 K,0.57 ± 0.06
same,activity coefficient,[1]; 353.15 K,0.58 ± 0.06
CCCCC [pentane] + CCCCCCn1cc[n+](C)c1C.F[B-](F)(F)F,activity coefficient,[1]; 313.15 K,28.9 ± 3
same,activity coefficient,[1]; 323.15 K,25.6 ± 2.7
same,activity coefficient,[1]; 333.15 K,22.9 ± 2.4
same,activity coefficient,[1]; 343.15 K,20.6 ± 2.2
same,activity coefficient,[1]; 353.15 K,18.8 ± 2
"Cc1ccc(C)cc1 [1,4-dimethylbenzene] + CCCCCCn1cc[n+](C)c1C.F[B-](F)(F)F",activity coefficient,[1]; 313.15 K,2.84 ± 0.3
same,activity coefficient,[1]; 323.15 K,3.05 ± 0.32
same,activity coefficient,[1]; 333.15 K,3.29 ± 0.35
same,activity coefficient,[1]; 343.15 K,3.51 ± 0.37
same,activity coefficient,[1]; 353.15 K,3.76 ± 0.4
C1=CCCCC1 [cyclohexene] + CCCCCCn1cc[n+](C)c1C.F[B-](F)(F)F,activity coefficient,[1]; 313.15 K,9.89 ± 1
same,activity coefficient,[1]; 323.15 K,9.67 ± 1
same,activity coefficient,[1]; 333.15 K,9.51 ± 1
same,activity coefficient,[1]; 343.15 K,9.36 ± 0.98
same,activity coefficient,[1]; 353.15 K,9.08 ± 0.95
CCc1ccccc1 [ethylbenzene] + CCCCCCn1cc[n+](C)c1C.F[B-](F)(F)F,activity coefficient,[1]; 313.15 K,3.81 ± 0.4
same,activity coefficient,[1]; 323.15 K,3.84 ± 0.4
same,activity coefficient,[1]; 333.15 K,3.88 ± 0.41
same,activity coefficient,[1]; 343.15 K,3.93 ± 0.41
same,activity coefficient,[1]; 353.15 K,3.95 ± 0.42
CCCCCCC [heptane] + CCCCCCn1cc[n+](C)c1C.F[B-](F)(F)F,activity coefficient,[1]; 313.15 K,47.9 ± 5
same,activity coefficient,[1]; 323.15 K,45.4 ± 4.8
same,activity coefficient,[1]; 333.15 K,42.8 ± 4.5
same,activity coefficient,[1]; 343.15 K,40.2 ± 4.2
same,activity coefficient,[1]; 353.15 K,37.4 ± 3.9
CC1CCCCC1 [methylcyclohexane] + CCCCCCn1cc[n+](C)c1C.F[B-](F)(F)F,activity coefficient,[1]; 313.15 K,25.4 ± 2.7
same,activity coefficient,[1]; 323.15 K,25.4 ± 2.7
same,activity coefficient,[1]; 333.15 K,24.9 ± 2.6
same,activity coefficient,[1]; 343.15 K,24.5 ± 2.6
same,activity coefficient,[1]; 353.15 K,23.9 ± 2.5
C1CCOC1 [tetrahydrofuran] + CCCCCCn1cc[n+](C)c1C.F[B-](F)(F)F,activity coefficient,[1]; 313.15 K,1.6 ± 0.17
same,activity coefficient,[1]; 323.15 K,1.62 ± 0.17
same,activity coefficient,[1]; 333.15 K,1.63 ± 0.17
same,activity coefficient,[1]; 343.15 K,1.65 ± 0.17
same,activity coefficient,[1]; 353.15 K,1.58 ± 0.16
CCOC(C)=O [ethyl acetate] + CCCCCCn1cc[n+](C)c1C.F[B-](F)(F)F,activity coefficient,[1]; 313.15 K,2.01 ± 0.21
same,activity coefficient,[1]; 323.15 K,2.12 ± 0.22
same,activity coefficient,[1]; 333.15 K,2.16 ± 0.23
same,activity coefficient,[1]; 343.15 K,2.21 ± 0.23
same,activity coefficient,[1]; 353.15 K,2.26 ± 0.24
"Cc1ccccc1C [1,2-dimethylbenzene] + CCCCCCn1cc[n+](C)c1C.F[B-](F)(F)F",activity coefficient,[1]; 313.15 K,2.38 ± 0.25
same,activity coefficient,[1]; 323.15 K,2.57 ± 0.27
same,activity coefficient,[1]; 333.15 K,2.76 ± 0.29
same,activity coefficient,[1]; 343.15 K,2.97 ± 0.31
same,activity coefficient,[1]; 353.15 K,3.16 ± 0.33
CCCCCC [hexane] + CCCCCCn1cc[n+](C)c1C.F[B-](F)(F)F,activity coefficient,[1]; 313.15 K,31 ± 3.3
same,activity coefficient,[1]; 323.15 K,29.5 ± 3.1
same,activity coefficient,[1]; 333.15 K,27.9 ± 2.9
same,activity coefficient,[1]; 343.15 K,26.3 ± 2.8
same,activity coefficient,[1]; 353.15 K,25 ± 2.6
"CC(C)CC(C)(C)C [2,2,4-trimethylpentane] + CCCCCCn1cc[n+](C)c1C.F[B-](F)(F)F",activity coefficient,[1]; 313.15 K,59.2 ± 6.2
same,activity coefficient,[1]; 323.15 K,59 ± 6.2
same,activity coefficient,[1]; 333.15 K,58.2 ± 6.1
same,activity coefficient,[1]; 343.15 K,57.5 ± 6.1
same,activity coefficient,[1]; 353.15 K,57.2 ± 6
c1ccccc1 [benzene] + CCCCCCn1cc[n+](C)c1C.F[B-](F)(F)F,activity coefficient,[1]; 313.15 K,1.54 ± 0.16
same,activity coefficient,[1]; 323.15 K,1.55 ± 0.16
same,activity coefficient,[1]; 333.15 K,1.57 ± 0.16
same,activity coefficient,[1]; 343.15 K,1.58 ± 0.16
same,activity coefficient,[1]; 353.15 K,1.59 ± 0.17
